# According to publication PMC9889419 (Pharmacological Reports, 2022):
# Where a name gives a salt, the structure may show the parent alone. Read-outs that look alike come from different tables or passages of the source.
# Assays:
# [1] = test system: Ca2+ channel (L, verapamil site) (phenylalkylamine); assay: Radioligand binding; set-up: species or system rat
# Procedure: (§1) Radioligand binding. Radioligand binding assays were performed at Eurofins CEREP (France). The results are expressed as a percent of control specific binding (measured specific binding*100/control specific binding) and as a percent inhibition of control specific binding (100-(measured specific binding*100)/control specific binding) obtained in the presence of the test compounds. The IC50 values (concentration causing a half-maximal inhibition of control specific binding) and Hill coefficients (nH) were determined by non-linear regression analysis of the competition curves generated with mean replicate values using Hill equation curve fitting (Y = D + [A-D]/[1 + (C/C50)^nH], where Y = specific binding, A = left asymptote of the curve, D = right asymptote of the curve, C = compound concentration, C50 = IC50, and nH = slope factor). This analysis was performed using software developed at Cerep (Hill software) and validated by comparison with data generated by the commercial software SigmaPlot® 4.0 for Windows® (© 1997 by SPSS Inc.). The inhibition constants (Ki) were calculated using the Cheng Prusoff equation (Ki = IC50/[1 + L/KD], where L = concentration of radioligand in the assay, and KD = affinity of the radioligand for the receptor). A scatchard plot is used to determine the Kd.
# α2 (non-selective) = assay: Radioligand binding; set-up: species or system rat
# Procedure: as §1
# Sigma (non-selective) = assay: Radioligand binding; set-up: species or system rat
# Procedure: as §1
# mice [2] = assay: 6 Hz test; format: in vivo; conditions: mice; for ED50: Mus musculus
# Procedure: The 6 Hz model test was carried out according to the protocol originally described by Brown et al. [54] and more recently by Barton et al. [55] and Kamiński et al. [47] and is a model of pharmacoresistant epilepsy [56].
# mice [3] = test system: mice
# rats [4] = format: in vivo; conditions: ip
# Na+ channel (site 2) = assay: Radioligand binding; set-up: species or system rat
# rats [5] = assay: SCMET (subcutaneous Metrazol) test; format: in vivo; conditions: for SCMET ED50: rats
# NIE-115 cells = assay: Patch-clamp (sodium currents); format: cell-based; conditions: 100 µM
# NMDA = assay: Electrophysiology studies (Test 17); format: cell-based; conditions: 100 uM, holding potential -70 mV
# Source text: Solvent Code: DMSO Solvent Prep: 257.759
# Test Add CompoundConc.(uM) # Cells % Control +/- SEM
# (1 picture or pasted object on this page, not shown here)
# in vivo = conditions: rat, ip
structure (smiles),measurement,setting,value
"CCC(CO)NCCOc1c(C)cccc1Cl (centres unmarked) [Compound 4, R,S-2-((2-(2-chloro-6-methylphenoxy)ethyl)amino)butan-1-ol]",% of control specific binding,[1]; 100 μM,38.5%
same,% of control specific binding,α2 (non-selective); 100 μM,27.7%
same,% of control specific binding,Sigma (non-selective); 100 μM,-2.7%
same,6 Hz ED50,"mice [2]; 32 mA, ip",32.4 (28.4–36.0) mg/kg
same,6 Hz TPE,"mice [2]; 32 mA, ip",0.25 h
same,6 Hz ED50,"mice [2]; 44 mA, ip",29.75 (28.3–31.5) mg/kg
same,6 Hz TPE,"mice [2]; 44 mA, ip",0.25 h
same,MES TPE,"mice [3]; female mice, ip",0.25 h
same,MES ED50,"mice [3]; female mice, ip, […]",11.64 (10.55–12.47) mg/kg
same,MES ED50,"mice [3]; mice, ip, […]",21.44 (18.63–25.32) mg/kg
same,MES PI,"mice [3]; mice, po",6.12
same,MES TPE,"mice [3]; mice, po",0.5 h
same,MES ED50,"mice [3]; mice, po, 0.5 h",58.13 (45.58–68.93) mg/kg
same,Hippocampal kindling avg. seizure score by Racine (0–5),"rats [4]; at 40 mg/kg, 0.25–2.25 h",5
same,% of control specific binding,Na+ channel (site 2); 100 μM,11.6%
same,SCMET ED50,"rats [5]; ip, […]",> 50 mg/kg
same,SCMET ED50,rats [5]; po,> 240 mg/kg
same,% of control +/- SEM,NIE-115 cells; holding potential -60 mV,26 +/- 3%
same,% of control +/- SEM,NIE-115 cells; holding potential -90 mV,55 +/- 5%
same,% Control +/- SEM,NMDA,63%
"CCC(CO)NCCOc1c(C)cccc1Cl (centres unmarked) [KM-408, R,S-2-((2-(2-chloro-6-methylphenoxy)ethyl)amino)butan-1-ol hydrochloride]",IC50,[1],43 µM
same,Ki,[1],22 µM
same,% of control specific binding,[1]; 0.1 μM,101.9%
same,% of control specific binding,[1]; 1 μM,104.4%
same,% of control specific binding,[1]; 3 μM,93.6%
same,% of control specific binding,[1]; 10 μM,80.9%
same,% of control specific binding,[1]; 100 μM,34.8%
same,IC50,α2 (non-selective),24 µM
same,Ki,α2 (non-selective),10 µM
same,% of control specific binding,α2 (non-selective); 0.01 μM,101.3%
same,% of control specific binding,α2 (non-selective); 0.1 μM,111.6%
same,% of control specific binding,α2 (non-selective); 1 μM,101.2%
same,% of control specific binding,α2 (non-selective); 10 μM,73.4%
same,% of control specific binding,α2 (non-selective); 100 μM,23.5%
same,IC50,Sigma (non-selective),0.089 µM
same,Ki,Sigma (non-selective),0.072 µM
same,% of control specific binding,Sigma (non-selective); 0.001 μM,104.0%
same,% of control specific binding,Sigma (non-selective); 0.01 μM,97.1%
same,% of control specific binding,Sigma (non-selective); 0.1 μM,50.0%
same,% of control specific binding,Sigma (non-selective); 1 μM,13.1%
same,% of control specific binding,Sigma (non-selective); 10 μM,1.4%
same,6 Hz TPE,"mice [2]; 32 mA, ip",0.25 h
same,6 Hz TPE,"mice [2]; 44 mA, ip",0.25 h
same,6 Hz TPE,"mice [2]; 44 mA, po",0.25 h
same,ED50,"mice [2]; ip, 32 mA",29.4 mg/kg
same,ED50,"mice [2]; ip, 44 mA",35.1 mg/kg
same,ED50,"mice [2]; po, 44 mA",281 mg/kg
same,MES TPE,"mice [3]; mice, ip",0.25 h
same,TD50,in vivo,54.3 mg/kg
same,Hippocampal kindling: death at,rats [4]; […],200 mg/kg
same,IC50,Na+ channel (site 2),15 µM
same,Ki,Na+ channel (site 2),14 µM
same,% of control specific binding,Na+ channel (site 2); 0.3 μM,101.1%
same,% of control specific binding,Na+ channel (site 2); 3 μM,92.0%
same,% of control specific binding,Na+ channel (site 2); 30 μM,40.3%
same,ED50,"rats [5]; Rattus norvegicus, ip, […], read-out: SCMET ED50",> 54 mg/kg
